# Measurements as given in patent publication US8680159B2, “Bradykinin 1 receptor modulating compounds” (Gruenenthal GmbH, priority 2010, dated 2014).
# Experiments:
# [1] = molecular target: T1, B1R receptor of the rat (CHO K1 cells stably transfected with the B1R gene of the rat) (Rattus norvegicus, UniProt P97583); test: Functional study on the bradykinin receptor 1 (B1R), Ca2+ fluorescence (Fluo-4) FLIPR/Novostar assay, rB1R cells; format: cell-based; details: CHO-K1, 10 μM, read-out: % inhibition (rat B1R) at 10 μM
# T1 construct: expressed in transfected cells; host or cells: CHO K1 cells (Chinese hamster ovary), stably transfected
# T1 sequence (P97583 1-337): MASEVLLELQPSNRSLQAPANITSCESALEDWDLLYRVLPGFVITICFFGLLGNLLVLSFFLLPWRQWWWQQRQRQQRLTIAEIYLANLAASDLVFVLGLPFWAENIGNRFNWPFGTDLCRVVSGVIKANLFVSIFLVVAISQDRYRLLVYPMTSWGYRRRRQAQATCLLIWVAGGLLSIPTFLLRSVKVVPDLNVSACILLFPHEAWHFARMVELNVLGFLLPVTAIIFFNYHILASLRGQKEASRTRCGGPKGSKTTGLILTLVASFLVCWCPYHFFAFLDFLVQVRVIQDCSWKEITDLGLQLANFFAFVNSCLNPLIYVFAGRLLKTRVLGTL
# Outline: (§1)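 Stably transfected CHO K1 cells carrying human or rat B1R were Fluo-4 loaded and Ca2+ fluorescence read by FLIPR or Novostar. Compounds were added first at 10 μM for % activation, then the EC80 agonist was applied after 6-20 min (human: Lys-Des-Arg9-bradykinin; rat: Des-Arg9-bradykinin). % inhibition is relative to maximum achievable inhibition, and IC50 comes from concentration series.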
# [2] = molecular target: T2, human B1R receptor (CHO K1 cells stably transfected with the human B1R gene) (Homo sapiens, UniProt P46663); test: Functional study on the bradykinin receptor 1 (B1R), Ca2+ fluorescence (Fluo-4) FLIPR/Novostar assay, hB1R cells; format: cell-based; details: CHO-K1, read-out: % inhibition (human B1R) at 10 μM
# T2 construct: expressed in transfected cells; host or cells: CHO K1 cells (Chinese hamster ovary), stably transfected
# T2 sequence (P46663 1-353): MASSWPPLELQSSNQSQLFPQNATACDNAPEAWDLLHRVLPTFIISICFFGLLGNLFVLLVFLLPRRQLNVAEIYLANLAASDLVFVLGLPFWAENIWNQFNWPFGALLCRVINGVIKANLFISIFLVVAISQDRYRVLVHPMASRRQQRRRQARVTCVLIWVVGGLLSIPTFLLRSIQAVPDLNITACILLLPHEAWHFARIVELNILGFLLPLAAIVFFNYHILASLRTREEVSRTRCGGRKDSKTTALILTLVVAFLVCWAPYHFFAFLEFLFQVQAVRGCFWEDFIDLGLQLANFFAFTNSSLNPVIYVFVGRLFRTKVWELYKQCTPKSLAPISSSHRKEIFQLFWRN
# Outline: as §1
SMILES,inhibition at 10 µM [1] [%],inhibition at 10 µM [2] [%]
"CN(C(=O)c1ccc2c(c1)[C@H](NC(=O)c1ccccc1Cl)CC2)C1CCN(c2ccncc2)CC1(C)C (stereo partly drawn) [Example H-60, (3R)-3-[(2-Chloro-benzoyl)amino]-N-(3,3-dimethyl-1-pyridin-4-yl-piperidin-4-yl)-N-methyl-2,3-dihydro-1H-indene-5-carboxylic acid amide]",103,99
"CN(C(=O)c1ccc2c(c1)[C@H](NC(=O)c1ccccc1Cl)CC2)C1CCC(c2ccncc2)CC1 (stereo partly drawn) [Example H-61, (3R)-3-[(2-Chloro-benzoyl)amino]-N-methyl-N-(4-pyridin-4-yl-cyclohexyl)-2,3-dihydro-1H-indene-5-carboxylic acid amide]",77,32
"Cc1cc(C(=O)N[C@@H]2CCc3ccc(C(=O)N(C)C4CCN(c5ccncc5)CC4)cc32)no1 [Example H-62, 5-Methyl-N-[(1R)-6-[methyl-(1-pyridin-4-yl-piperidin-4-yl)-carbamoyl]-2,3-clihydro-1H-inden-1-yl]-isoxazole-3-carboxylic acid amide]",99,100
"CN(CC1CCN(c2ccncc2)CC1)C(=O)c1ccc2c(c1)[C@H](NC(=O)c1ccccc1Cl)CC2 [Example H-64, (3R)-3-[(2-Chloro-benzoyl)amino]-N-methyl-N-[(1-pyridin-4-yl-piperidin-4-yl)-methyl]-2,3-dihydro-1H-indene-5-carboxylic acid amide]",97,96
"CC(C)CN(C(=O)c1ccccc1Cl)[C@@H]1CCc2ccc(C(=O)N(C)C3CCN(c4ccncc4)CC3)cc21 [Example H-65, (3R)-3-[(2-Chloro-benzoyl)-(2-methyl-propyl)-amino]-N-methyl-N-(1-pyridin-4-yl-piperidin-4-yl)-2,3-dihydro-1H-indene-5-carboxylic acid amide]",107,100
"CN(C(=O)c1ccc2c(c1)[C@H](NC(=O)[C@H]1CCCc3ccccc31)CC2)C1CCN(c2ccncc2)CC1 [Example H-69, (1S)-N-[(1R)-6-[Methyl-(1-pyridin-4-yl-piperidin-4-yl)-carbamoyl]-2,3-dihydro-1H-inden-1-yl]-1,2,3,4-tetrahydro-naphthalene-1-carboxylic acid amide]",99,100
"CN(C(=O)c1ccc2c(c1)[C@H](NC(=O)c1ccccc1)CC2)C1CCN(c2ccncc2)CC1 [Example H-71, (3R)-3-Benzoylamino-N-methyl-N-(1-pyridin-4-yl-piperidin-4-yl)-2,3-dihydro-1H-indene-5-carboxylic acid amide]",99,100
"CN(C(=O)c1ccc2c(c1)[C@H](NS(=O)(=O)c1ccc(F)cc1)CC2)C1CCN(c2ccncc2)CC1 [Example H-72, (3R)-3-[[(4-Fluorophenyl)sulfonyl]amino]-N-methyl-N-(1-pyridin-4-yl-piperidin-4-yl)-2,3-dihydro-1H-indene-5-carboxylic acid amide]",104,99
"CN(C(=O)c1ccc2c(c1)[C@H](NS(=O)(=O)c1ccccc1)CC2)C1CCN(c2ccncc2)CC1 [Example H-74, (3R)-3-(Benzenesulfonamido)-N-methyl-N-(1-pyridin-4-yl-piperidin-4-yl)-2,3-dihydro-1H-indene-5-carboxylic acid amide]",104,100
"CN(C(=O)c1ccc2c(c1)[C@H](NC(=O)c1ccc(F)cc1)CC2)C1CCN(c2ccncc2)CC1 [Example H-75, (3R)-3-[(4-Fluoro-benzoyl)amino]-N-methyl-N-(1-pyridin-4-yl-piperidin-4-yl)-2,3-dihydro-1H-indene-5-carboxylic acid amide]",105,100
"CN(C(=O)c1ccc2c(c1)[C@H](NC(=O)C1CCOCC1)CC2)C1CCN(c2ccncc2)CC1 [Example H-76, N-[(1R)-6-[Methyl-(1-pyridin-4-yl-piperidin-4-yl)-carbamoyl]-2,3-dihydro-1H-yl)-1-2,3-tetrahydro-pyran-4-carboxylic acid amide]",107,95

# The remaining lines, values ahead:
inhibition at 10 µM [1] [%],inhibition at 10 µM [2] [%],SMILES
98,100,"CN(C(=O)c1ccc2c(c1)[C@H](NC(=O)C(C)(C)c1ccccc1Cl)CC2)C1CCN(c2ccncc2)CC1 [Example H-58, (3R)-3-[[2-(2-Chlorophenyl)-2-methyl-propanoyl]amino]-N-methyl-N-(1-pyridin-4-yl-piperidin-4-yl)-2,3-dihydro-1H-indene-5-carboxylic acid amide]"
103,99,"Cc1cc(N2CCC(N(C)C(=O)c3ccc4c(c3)[C@H](NC(=O)c3ccccc3Cl)CC4)CC2)nc(C)n1 [Example H-59, (3R)-3-[(2-Chloro-benzoyl)amino]-N-[1-(2,6-dimethyl-pyrimidin-4-yl)-piperidin-4-yl]-N-methyl-2,3-dihydro-1H-indene-5-carboxylic acid amide]"
96,100,"CN(C(=O)c1ccc2c(c1)[C@H](NC(=O)CC(F)(F)F)CC2)C1CCN(c2ccncc2)CC1 [Example H-63, (3R)-N-Methyl-N-(1-pyridin-4-yl-piperidin-4-yl)-3-(3,3,3-trifluoro-propanoylamino)-2,3-dihydro-1H-indene-5-carboxylic acid amide]"
99,93,"CN(CCC1CCN(c2ccncc2)CC1)C(=O)c1ccc2c(c1)[C@H](NC(=O)c1ccccc1Cl)CC2 [Example H-66, (3R)-3-[(2-Chloro-benzoyl)amino]-N-methyl-N-[2-(1-pyridin-4-yl-piperidin-4-yl)-ethyl]-2,3-dihydro-1H-indene-5-carboxylic acid amide]"
102,100,"CN(C(=O)c1ccc2c(c1)[C@H](NC(=O)c1ccccc1C(C)(C)C)CC2)C1CCN(c2ccncc2)CC1 [Example H-67, (3R)-3-[(2-tert-Butyl-benzoyl)amino]-N-methyl-N-(1-pyridin-4-yl-piperidin-4-yl)-2,3-dihydro-1H-indene-5-carboxylic acid amide]"
104,100,"CC(C)CS(=O)(=O)N[C@@H]1CCc2ccc(C(=O)N(C)C3CCN(c4ccncc4)CC3)cc21 [Example H-68, (3R)-N-Methyl-3-[(2-methyl-propylsulfonyl)amino]-N-(1-pyridin-4-yl-piperidin-4-yl)-2,3-dihydro-1H-indene-5-carboxylic acid amide]"
96,100,"CN(C(=O)c1ccc2c(c1)[C@H](NC(=O)[C@@H]1CCCc3ccccc31)CC2)C1CCN(c2ccncc2)CC1 [Example H-70, N-[(1R)-6-[Methyl-(1-pyridin-4-yl-piperidin-4-yl)-carbamoyl]-2,3-dihydro-1H-inden-1-yl]-1,2,3,4-tetrahydro-naphthalene-1-carboxylic acid amide]"
104,100,"CN(C(=O)c1ccc2c(c1)[C@H](NC(=O)c1cccc3ccccc13)CC2)C1CCN(c2ccncc2)CC1 [Example H-73, N-[(1R)-6-[Methyl-(1-pyridin-4-yl-piperidin-4-yl)-carbamoyl]-2,3-dihydro-1H-Inden-1-yl]-naphthalene-1-carboxylic acid amide]"
